Measured values reported in PMC10174317, “^18F-labeled FGFR1 peptide: a new PET probe for subtype FGFR1 receptor imaging” (Frontiers in Oncology, 2023).
Where a SMILES comes first, the peptide text is derived from it. The star is where a group is joined. NOTA = O=C(O)CN1CCN(CC(=O)O)CCN(CC(=O)*)CC1; AEEA = NCCOCCOCC(=O)O

Assays:
[1] = system: RT-112, A549, SNU-16 and Calu-3 cells; test: Cellular internalization study; assay type: cell-based, human; settings: acid wash with acetate buffer pH 2.5, four cell lines, P > 0.5, n = 6
Experimental: Internalization studies were performed according to the planned experiments. Thirty microliters (111 KBq, 1.81-2.53 GBq/μmol) of [^18F]F-FGFR1 was incubated with fresh medium in 24-well plates. The medium was discarded at predetermined time points, and the wells were rinsed twice with 1000 µl of PBS. Then, 1000 µl of acetate buffer (0.2 M acetic acid/0.5 M NaCl, pH 2.5) was added to the wells to remove surface-bound radioactivity. After removing the acetate buffer, the cells were washed twice with 1000 µl of PBS. The acetate buffer and PBS were collected and marked as Cs. The radioactivity of the collected cell lysate was measured and defined as Cin. The internalization rate was assessed in a similar method to the cell uptake rate calculation: Cin/(Cin + Cs).

[2] = Micro-PET/CT biodistribution in RT-112 xenografts; assay type: in vivo, BALB/c nude mice; settings: female, BALB/c nude, mouse, iv, total radioactivity, 11.1 MBq tail vein, micro-PET/CT ROI, mean ± SD; for tissue uptake at 0.5 h: 30 min post-injection; for tissue uptake at 1 h: 60 min post-injection; for tissue uptake at 2 h: 120 min post-injection
Experimental: (§1) All animal experiments were carried out in accordance with the Laboratory Animal Ethical Review of Animal Guidelines of China. BALB/c nude mice (sex, female; age, 4 weeks, body weight range, 19-21 g; China) were used for this study. Four cell lines (2*10^7 cells/nude mouse) were subcutaneously injected into the right forelimb to induce solid tumors. All xenograft nude mice were housed in laminar flow cabinets in a specific pathogen-free (SPF) environment and were provided ad libitum access to food and water at the Laboratory Animal Center of the Fourth Hospital of Hebei Medical University (China). The indication for micro-PET/CT imaging was xenografts with a tumor volume of 50-130 mm^3. All animal experiments strictly adhered to the Principles of the Laboratory Animal Ethical Committee of the Fourth Hospital Hebei Medical University (No. 2020016).
(§2) Xenograft mice (n=5) were fastly injected of 200 µl of [^18F]F-FGFR1 (11.1 MBq) through tail vein. For the in vivo blocking study, RT-112 (FGFR1-high expression) tumor-bearing mice (n = 5) were injected with a tracer that was mixed with 200-fold (1.58 mg) unlabeled peptide to saturate the receptors in the tumors. Mice were anesthetized via 3% isoflurane inhalation (RWD Life Science Inc. China) for induction and 2% isoflurane inhalation for maintenance. Micro-PET/CT imaging was performed on a micro-PET/SPECT/CT machine (NOVEL MEDICAL Equipment Ltd. China). Whole-body scans were performed 30, 60 and 120 min after tracer administration. The CT scanning parameters were 80 kV, 0.5 mA, 2000 ms/frames, and 360 frames; the images were reconstructed with a 512*512 matrix and a slice thickness of 0.18 mm. PET images were acquired with a 140*140 matrix and 10 min of total acquisition time. Reconstructed images were processed with the comprehensive image analysis software Pmod v4.201 (PMOD Technologies LLC. Switzerland). The biodistribution of the major organs (brain, heart, lung, liver, kidney, bone and muscle) and tumor were analyzed by manually outlining the regions of interest (ROIs) of the entire organs and tissue at each time point of the micro-PET/CT scan. The radioactivity accumulated in bone and muscle was measured in the limbs without xenograft tumors.

[3] = Micro-PET/CT biodistribution in Calu-3 xenografts; assay type: in vivo, BALB/c nude mice; settings: female, BALB/c nude, mouse, iv, total radioactivity, 11.1 MBq tail vein, micro-PET/CT ROI, mean ± SD; for tissue uptake at 0.5 h: 30 min post-injection; for tissue uptake at 1 h: 60 min post-injection; for tissue uptake at 2 h: 120 min post-injection
Experimental: as §1, §2

[4] = Micro-PET/CT biodistribution in RT-112-blocked xenografts; assay type: in vivo, BALB/c nude mice; settings: female, BALB/c nude, mouse, iv, total radioactivity, n=5; for tissue uptake at 0.5 h / tissue uptake at 1 h / tissue uptake at 2 h: RT-112-blocked xenografts (tracer mixed with 200-fold, 1.58 mg, unlabeled peptide), 11.1 MBq tail vein, micro-PET/CT ROI, mean ± SD; for tissue uptake at 0.5 h: 30 min post-injection; for tissue uptake at 1 h: 60 min post-injection
Experimental: as §1, §2

[5] = bone, n=5, read-out: Biodistribution, Bone
[6] = brain, n=5, read-out: Biodistribution, Brain
[7] = heart, n=5, read-out: Biodistribution, Heart
[8] = kidney, n=5, read-out: Biodistribution, Kidney
[9] = liver, n=5, read-out: Biodistribution, Liver
[10] = lung, n=5, read-out: Biodistribution, Lung
[11] = muscle, n=5, read-out: Biodistribution, Muscle
[12] = tumor, n=5, read-out: Biodistribution, Tumor
[13] = bone, read-out: Biodistribution, Bone
[14] = brain, read-out: Biodistribution, Brain
[15] = heart, read-out: Biodistribution, Heart
[16] = kidney, read-out: Biodistribution, Kidney
[17] = liver, read-out: Biodistribution, Liver
[18] = lung, read-out: Biodistribution, Lung
[19] = muscle, read-out: Biodistribution, Muscle
[20] = tumor, read-out: Biodistribution, Tumor

What does the source list for `CC(C)C[C@H](NC(=O)[C@H](CO)NC(=O)[C@H](CCCCN)NC(=O)[C@H](Cc1c[nH]c2ccccc12)NC(=O)[C@H](CCC(=O)O)NC(=O)[C@H](C)NC(=O)[C@H](CCCCN)NC(=O)COCCOCCNC(=O)CN1CCN(CC(=O)O)CCN(CC(=O)O)CC1)C(=O)NCC(=O)N[C@@H](CCC(=O)O)C(=O)N[C@@H](CCC(=O)O)C(=O)N[C@@H](C)C(=O)N[C@@H](Cc1c[nH]c2ccccc12)C(=O)N[C@@H](Cc1c[nH]cn1)C(=O)N[C@@H](CO)C(=O)N[C@@H](CCCCN)C(=O)O` [[^18F]F-FGFR1] ({NOTA-AEEA}-KAEWKSLGEEAWHSK-OH; N-terminus and C-terminus assumed)?
Internalization fraction Cin/(Cin + Cs) [1]: not significantly different in the four cell lines; tissue uptake at 0.5 h [2, 5]: 0.33 ± 0.1 %ID/g; tissue uptake at 1 h [2, 5]: 0.35 ± 0.12 %ID/g; tissue uptake at 2 h [2, 5]: 0.48 ± 0.23 %ID/g; tissue uptake at 0.5 h [2, 6]: 0.66 ± 0.05 %ID/g; tissue uptake at 1 h [2, 6]: 0.69 ± 0.03 %ID/g; tissue uptake at 2 h [2, 6]: 0.03 ± 0.01 %ID/g; tissue uptake at 0.5 h [2, 7]: 1.02 ± 0.11 %ID/g; tissue uptake at 1 h [2, 7]: 0.75 ± 0.06 %ID/g; tissue uptake at 2 h [2, 7]: 0.1 ± 0.03 %ID/g; tissue uptake at 0.5 h [2, 8]: 9.44 ± 0.58 %ID/g; tissue uptake at 1 h [2, 8]: 6.85 ± 0.77 %ID/g; tissue uptake at 2 h [2, 8]: 19 ± 4.82 %ID/g; tissue uptake at 0.5 h [2, 9]: 1.35 ± 0.23 %ID/g; tissue uptake at 1 h [2, 9]: 1.43 ± 0.06 %ID/g; tissue uptake at 2 h [2, 9]: 0.17 ± 0.08 %ID/g; tissue uptake at 0.5 h [2, 10]: 0.75 ± 0.11 %ID/g; tissue uptake at 1 h [2, 10]: 0.65 ± 0.09 %ID/g; tissue uptake at 2 h [2, 10]: 0.14 ± 0.05 %ID/g; tissue uptake at 0.5 h [2, 11]: 0.24 ± 0.05 %ID/g; tissue uptake at 1 h [2, 11]: 0.28 ± 0.03 %ID/g; tissue uptake at 2 h [2, 11]: 0.09 ± 0.02 %ID/g; tissue uptake at 0.5 h [2, 12]: 3.84 ± 0.17 %ID/g; tissue uptake at 1 h [2, 12]: 2.6 ± 0.1 %ID/g; tissue uptake at 2 h [2, 12]: 1.35 ± 0.07 %ID/g; tissue uptake at 0.5 h [3, 5]: 0.42 ± 0.05 %ID/g; tissue uptake at 1 h [3, 5]: 0.36 ± 0.05 %ID/g; tissue uptake at 2 h [3, 5]: 0.37 ± 0.04 %ID/g; tissue uptake at 0.5 h [3, 6]: 0.6 ± 0.04 %ID/g; tissue uptake at 1 h [3, 6]: 0.66 ± 0.06 %ID/g; tissue uptake at 2 h [3, 6]: 0.67 ± 0.18 %ID/g; tissue uptake at 0.5 h [3, 7]: 0.79 ± 0.08 %ID/g; tissue uptake at 1 h [3, 7]: 0.8 ± 0.07 %ID/g; tissue uptake at 2 h [3, 7]: 0.79 ± 0.17 %ID/g; tissue uptake at 0.5 h [3, 8]: 8.47 ± 0.83 %ID/g; tissue uptake at 1 h [3, 8]: 7.48 ± 0.6 %ID/g; tissue uptake at 2 h [3, 8]: 3.02 ± 0.69 %ID/g; tissue uptake at 0.5 h [3, 9]: 1.4 ± 0.07 %ID/g; tissue uptake at 1 h [3, 9]: 1.54 ± 0.12 %ID/g; tissue uptake at 2 h [3, 9]: 1.33 ± 0.17 %ID/g; tissue uptake at 0.5 h [3, 10]: 0.62 ± 0.08 %ID/g; tissue uptake at 1 h [3, 10]: 0.54 ± 0.06 %ID/g; tissue uptake at 2 h [3, 10]: 0.48 ± 0.04 %ID/g; tissue uptake at 0.5 h [3, 11]: 0.28 ± 0.04 %ID/g; tissue uptake at 1 h [3, 11]: 0.25 ± 0.03 %ID/g; tissue uptake at 2 h [3, 11]: 0.3 ± 0.04 %ID/g; tissue uptake at 0.5 h [3, 12]: 0.59 ± 0.08 %ID/g; tissue uptake at 1 h [3, 12]: 0.58 ± 0.06 %ID/g; tissue uptake at 2 h [3, 12]: 0.43 ± 0.03 %ID/g; tissue uptake at 0.5 h [4, 13]: 0.31 ± 0.07 %ID/g; tissue uptake at 1 h [4, 13]: 0.37 ± 0.04 %ID/g; tissue uptake at 2 h ([4]; bone, 120 min post-injection, read-out: Biodistribution, Bone): 0.35 ± 0.07 %ID/g; tissue uptake at 0.5 h [4, 14]: 0.61 ± 0.03 %ID/g; tissue uptake at 1 h [4, 14]: 0.61 ± 0.06 %ID/g; tissue uptake at 2 h ([4]; brain, 120 min post-injection, read-out: Biodistribution, Brain): 0.71 ± 0.1 %ID/g; tissue uptake at 0.5 h [4, 15]: 0.74 ± 0.08 %ID/g; tissue uptake at 1 h [4, 15]: 0.7 ± 0.07 %ID/g; tissue uptake at 2 h ([4]; heart, 120 min post-injection, read-out: Biodistribution, Heart): 0.75 ± 0.14 %ID/g; tissue uptake at 0.5 h [4, 16]: 9.35 ± 0.82 %ID/g; tissue uptake at 1 h [4, 16]: 7.31 ± 0.87 %ID/g; tissue uptake at 2 h ([4]; kidney, 120 min post-injection, read-out: Biodistribution, Kidney): 3.37 ± 0.54 %ID/g; tissue uptake at 0.5 h [4, 17]: 0.67 ± 0.16 %ID/g; tissue uptake at 1 h [4, 17]: 0.51 ± 0.09 %ID/g; tissue uptake at 2 h ([4]; liver, 120 min post-injection, read-out: Biodistribution, Liver): 0.5 ± 0.09 %ID/g; tissue uptake at 0.5 h [4, 18]: 0.6 ± 0.05 %ID/g; tissue uptake at 1 h [4, 18]: 0.59 ± 0.04 %ID/g; tissue uptake at 2 h ([4]; lung, 120 min post-injection, read-out: Biodistribution, Lung): 0.51 ± 0.07 %ID/g; tissue uptake at 0.5 h [4, 19]: 0.26 ± 0.03 %ID/g; tissue uptake at 1 h [4, 19]: 0.29 ± 0.03 %ID/g; tissue uptake at 2 h ([4]; muscle, 120 min post-injection, read-out: Biodistribution, Muscle): 0.27 ± 0.02 %ID/g; tissue to tissue ratio at 2 h ([4]; tumor and liver, RT-112-blocked xenografts (200-fold unlabeled peptide), 120 min post-injection, micro-PET/CT, read-out: Tumor to liver ratio (T/L)): 0.85 ± 0.22; tissue uptake at 0.5 h [4, 20]: 0.4 ± 0.02 %ID/g; tissue uptake at 1 h [4, 20]: 0.39 ± 0.03 %ID/g; tissue uptake at 2 h ([4]; tumor, 120 min post-injection, read-out: Biodistribution, Tumor): 0.4 ± 0.02 %ID/g
